Article PMC9718795, “Caffeic acid N-[3,5-bis(trifluoromethyl)phenyl] amide as a non-steroidal inhibitor for steroid 5α-reductase type 1 using a human keratinocyte cell-based assay and molecular dynamics” (Scientific Reports, 2022)

What was measured:
HaCaTs-produced SRD5A1 = target: T1, HaCaTs-produced SRD5A1 (Homo sapiens, UniProt P18405); test: Whole-cell-based kinetic study of HaCaT-produced SRD5A1 with HPTLC; set-up: Apparent Vmax: unit not given here; conditions: 12 h
T1 construct: HaCaTs-produced SRD5A1 smoothly converted testosterone to DHT; endogenous in cells; host or cells: HaCaT human keratinocytes
T1 sequence (P18405 1-259): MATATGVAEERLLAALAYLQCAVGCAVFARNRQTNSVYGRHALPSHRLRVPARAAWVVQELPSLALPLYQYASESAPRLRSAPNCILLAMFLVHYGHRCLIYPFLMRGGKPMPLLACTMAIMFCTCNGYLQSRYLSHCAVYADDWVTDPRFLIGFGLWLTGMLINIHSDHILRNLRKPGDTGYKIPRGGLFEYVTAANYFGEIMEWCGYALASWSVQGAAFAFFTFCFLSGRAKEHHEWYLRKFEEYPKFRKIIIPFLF
Description: The in vitro whole HaCaT cell-based assay for the kinetic inhibition against SRD5A1 included culturing the cells for 48 h, treating the cells with testosterone and compound 4 for 12 h and evaluating the % intensity of DHT and cell viability using HPTLC analysis and MTT assay, respectively. The HaCaT cells were seeded and incubated as same as the method shown in 3.8. For the evaluation of dose-dependent activity of testosterone, the different concentration of testosterone (0 − 50 μM) and DMEM with 0.1% DMSO were added. […] DMEM with 0.1% DMSO was used as negative control. Then, the cells were incubated for 12 h. The collection of cell culture medium, extraction process, sample preparation and HPTLC detection were prepared by the method mentioned above (3.8). The obtaining chromatogram was visualized by CAMAG HPTLC Software vision CATS and analyzed by Image J software. The percentage of DHT intensity was calculated based on the intensity of DHT normalized by the standard of DHT at 100 μM. At the same time, the cell viability of the treated cells was assessed by the MTT assay. Each experiment was repeated in triplicate.

SRD5A1 mRNA = SRD5A1 mRNA level by RT-qPCR in HaCaT cells; assay type: cell-based, human; conditions: 0.5, 1 and 2.5 µM; 12 h and 24 h
Description: HaCaT cells (2 × 10^5 cells/well in 6 well-plates) were treated with compound 4 (0, 0.5, 1 and 2.5 µM) for 12 and 24 h. Then, total RNA was extracted by using Purelink RNA mini purification kit. The isolated RNA was purified by DNase I and further used as a template for synthesis of cDNA using RevertAid First Stand cDNA Synthesis Kit. Quantitative real-time PCR (RT-qPCR) was performed with a C100 Thermal Cycler (Bio-Rad CFX384 real-time pcr system) using Luna Universal qPCR Master Mix (M3003). Specific forward and reverse primers of the interested gene was indicated as following.
The reactions were incubated for 39 cycles of 95 °C for 5 s, 60 °C for 30 s and 65 °C for 5 s. The expression of target mRNA was determined as the relative comparison via the ΔCt method. The threshold (Ct) of target genes were normalized with GAPDH (Ct) values.

[1] = In vitro cytotoxic MTT assay against HaCaT cells; assay type: cell-based, human; conditions: human, HaCaT cells (human keratinocytes), read-out: Cytotoxicity IC50 against HaCaTs
Description: The cytotoxicity of caffeic acid and its amide derivatives were evaluated with two cell lines, human keratinocyte (HaCaT) and DP cells, using the common cell viability assay with MTT. HaCaT and DP cells were seeded at 1 × 10^4 cell/well in 96-well plates in a complete DMEM medium, incubated overnight, and treated with test compounds at 0–50 µM for 24 h. The stock solutions of all the test compounds were prepared in DMSO. Each compound was serially diluted in DMEM to achieve concentrations at 0.5–50 µM; DMEM was used as the negative control. After 24 h of treatment, the culture medium was removed, and cell viability was determined by adding 100 µL of 0.5 mg/mL MTT at 37 °C in darkness for 3 h. After removing the MTT solution, 100 µL of DMSO was added to each well to dissolve the purple formazan crystals. The absorbance was measured at 570 nm using a microplate reader, and the IC50 value was calculated. Each experiment was performed in triplicates.

[2] = Cell viability (MTT) run in parallel with the HaCaT-based SRD5A1 inhibitory assay; set-up: species or system human; conditions: human, HaCaT cells, HaCaT, 24 h
HaCaT cells = test: as above; set-up: species or system human; conditions: HaCaT
[3] = target: T2, steroid 5α-reductase type 1 (SRD5A1) (Homo sapiens, UniProt P18405); test: HaCaT cell-based SRD5A1 inhibitory assay with direct DHT detection by HPTLC
T2 construct: HaCaTs-produced SRD5A1 smoothly converted testosterone to DHT; endogenous in cells; host or cells: HaCaT human keratinocytes
T2 sequence (P18405 1-259): T1 sequence (P18405 1-259)

## O=C(C=Cc1ccc(O)c(O)c1)Nc1cc(C(F)(F)F)cc(C(F)(F)F)c1 [Compound 4, 3-(3,4-dihydroxyphenyl)-N-[3,5-bis (trifluoromethyl)phenyl]-2-propenamide]
HaCaTs-produced SRD5A1; compound 4 0.2 µM
  Apparent Vmax: 96.08
HaCaTs-produced SRD5A1; compound 4 0.5 µM
  Apparent Vmax: 76.27
HaCaTs-produced SRD5A1; compound 4 1.0 µM
  Apparent Vmax: 74.06
HaCaTs-produced SRD5A1; compound 4 2.5 µM
  Apparent Vmax: 69.85
HaCaTs-produced SRD5A1; mixed-model inhibition analysis, non-linear
  Ki: 2380 nM
HaCaTs-produced SRD5A1; testosterone 1 µM, compound 4 0.2 µM
  % DHT intensity ± S.D.: 0.83 ± 0.219%
HaCaTs-produced SRD5A1; testosterone 1 µM, compound 4 0.5 µM
  % DHT intensity ± S.D.: 0.70 ± 0.16%
HaCaTs-produced SRD5A1; testosterone 1 µM, compound 4 1.0 µM
  % DHT intensity ± S.D.: 0.12 ± 0.01%
HaCaTs-produced SRD5A1; testosterone 1 µM, compound 4 2.5 µM
  % DHT intensity ± S.D.: 0.13 ± 0.03%
HaCaTs-produced SRD5A1; testosterone 5 µM, compound 4 0.2 µM
  % DHT intensity ± S.D.: 29.00 ± 1.829%
HaCaTs-produced SRD5A1; testosterone 5 µM, compound 4 0.5 µM
  % DHT intensity ± S.D.: 44.57 ± 9.66%
HaCaTs-produced SRD5A1; testosterone 5 µM, compound 4 1.0 µM
  % DHT intensity ± S.D.: 34.49 ± 3.82%
HaCaTs-produced SRD5A1; testosterone 5 µM, compound 4 2.5 µM
  % DHT intensity ± S.D.: 0.31 ± 0.04%
HaCaTs-produced SRD5A1; testosterone 10 µM, compound 4 0.2 µM
  % DHT intensity ± S.D.: 48.11 ± 5.339%
HaCaTs-produced SRD5A1; testosterone 10 µM, compound 4 0.5 µM
  % DHT intensity ± S.D.: 23.04 ± 2.83%
HaCaTs-produced SRD5A1; testosterone 10 µM, compound 4 1.0 µM
  % DHT intensity ± S.D.: 27.21 ± 2.98%
HaCaTs-produced SRD5A1; testosterone 10 µM, compound 4 2.5 µM
  % DHT intensity ± S.D.: 30.48 ± 5.08%
HaCaTs-produced SRD5A1; testosterone 25 µM, compound 4 0.2 µM
  % DHT intensity ± S.D.: 86.19 ± 4.08%
HaCaTs-produced SRD5A1; testosterone 25 µM, compound 4 0.5 µM
  % DHT intensity ± S.D.: 71.91 ± 2.00%
HaCaTs-produced SRD5A1; testosterone 25 µM, compound 4 1.0 µM
  % DHT intensity ± S.D.: 68.49 ± 0.95%
HaCaTs-produced SRD5A1; testosterone 25 µM, compound 4 2.5 µM
  % DHT intensity ± S.D.: 46.20 ± 0.91%
HaCaTs-produced SRD5A1; testosterone 50 µM, compound 4 0.2 µM
  % DHT intensity ± S.D.: 90.49 ±10.32%
HaCaTs-produced SRD5A1; testosterone 50 µM, compound 4 0.5 µM
  % DHT intensity ± S.D.: 72.72 ± 12.38%
HaCaTs-produced SRD5A1; testosterone 50 µM, compound 4 1.0 µM
  % DHT intensity ± S.D.: 65.61 ± 2.06%
HaCaTs-produced SRD5A1; testosterone 50 µM, compound 4 2.5 µM
  % DHT intensity ± S.D.: 55.01 ± 2.40%
HaCaTs-produced SRD5A1; whole-cell
  Mode of SRD5A1 inhibition: mixed inhibition
SRD5A1 mRNA
  Effect on mRNA expression of SRD5A1: did not affect
[1]
  IC50 at 24 h: 30000 ± 8690 nM
[2]; compound 1.0 µM, read-out: % Cell viability ± SD
  viability at 24 h, 1 µM: 88%
[2]; compound 5 µM, read-out: Viability of treated cells
  viability at 24 h, 5 µM: < 80%
HaCaT cells; 0.2, 0.5, 1 and 2.5 µM
  Cytotoxicity between control and treatment groups: no significant cytotoxicity
HaCaT cells; compound 1.0 µM, 24 h, 1 µM
  % Cell viability ± SD: 87.85 ± 1.13%
[3]; 0.2–2.5 µM, HaCaT
  Concentration dependence of inhibition of DHT production: concentration-dependent inhibition
[3]; HaCaT cells, 10 µM testosterone, 24 h, read-out: IC50 of inhibition of DHT production (SRD5A1 activity)
  IC50: 1440 ± 130 nM
[3]; HaCaT, 2.5 µM, 12 h, read-out: Inhibition of SRD5A1 enzyme activity
  inhibition at 2.5 µM: ~50%
[3]; HaCaT, compound 1.0 µM, HaCaT, 24 h, read-out: % Inhibition of DHT production ± SD
  inhibition at 1 µM: 46%
[3]; IC50 1.44 vs 4.45 µM
  Potency of DHT inhibition relative to avicequinone C: 3 times
[3]; compound 1.0 µM, HaCaT, 24 h, 1 µM
  % Inhibition of DHT production ± SD: 45.67 ± 3.57%
